Reference: US20090312373A1, “METHODS FOR THE TREATMENT OF CANCER USING PIPERLONGUMINE AND PIPERLONGUMINE ANALOGS” (The General Hospital Corporation, priority 2008, published 2009)
Entries after “also recorded” stand apart in the source; their conditions may differ.

Assays:
[1] = system: survival proteins (Bc12, Survivin, XAIP); test: Exon gene array and Western blot of survival proteins in U2OS and EJ cells; assay type: cell-based, human; conditions: variety of concentrations
Method: Downstream target genes of piperlongumine (CT-007) were identified using an human exon gene array analysis of U2OS and EJ cancer cell lines (FIG. 12). In addition, the results from the gene array analysis were confirmed by Western blot (FIG. 13; See also Example 12 below).
U2OS cells and EJ cells were exposed to piperlongumine (10 μM) and aliquots of the cells were taken at 6 and 12 hours and lysed to determine the level of Twist expression. […] HCT116 cells (p53-wt cells) were exposed to piperlongumine and aliquots of the cells were taken at 6 and 12 hours and lysed to determine the level of CDIP expression. […] U2OS cells (p53-wt cells) and EJ cells (non-functional p53) were exposed to various concentrations of piperlongumine (piper) and aliquots of the cells were lysed to determine the level of survival protein expression.

[2] = system: immortalized human breast epithelial cells; test: DNA damage markers in immortalized human breast epithelial cells; assay type: cell-based; conditions: taxol 10 nM
From the text: The conditions and time of exposure are indicated in the legend of the figure.

[3] = system: patient-derived colon cancer tumor samples; test: Histoculture Drug Response Assay (HDRA), colon; assay type: cell-based, human
From the text: (§1) Piperlongumine (SP2007) was compared to a variety of known anti-cancer agents in a Histoculture Drug Response Assay (HDRA). HDRA is an assay that provides a reliable approach to determine the profile of in vivo chemo-sensitivity in cancer patients. The assay allows for a three-dimensional culture, the testing of patient tumor sensitivity, the evaluation of treatment option for individual patients with solid tumor types and a high correlation to clinical drug sensitivity (Flowers J L et al., Cancer Chemother. Pharmacol. 2003 September 52 (3): 253-261). The assays were performed by Anti-cancer Inc., (San Diego, Calif.). An average of twenty samples was tested for each tumor type.

human cancer cell lines [4] = test: Cell growth inhibition and cell death/apoptosis in a panel of human cancer cell lines; assay type: cell-based
From the text: We evaluated the ability of piperlongumine to induce apoptosis in a panel of human cancer cells (>40 human cancer cell lines) including cell lines with both wt and mutant p53 status, including non-functional mutants (See Table 1).

p53 = p53 acetylation Western blot in U2OS cells; assay type: cell-based, human; conditions: 6 hours
Method: U2OS cells were treated with piperlongumine (SP), the HDAC inhibitor TSA (trichostatin A ([…])) or the control DMSO for 6 hours. Cell extracts were fractionated in SDS-PAGE gel and analyzed by western blot.

[5] = Long-term piperlongumine treatment toxicity in mice; assay type: in vivo, mouse; conditions: 2.4 mg/kg injected multiple times for 4 weeks
Method: Piperlongumine (2.4 mg/kg) was injected into mice (8 mice per group) multiple times for 4 weeks. […] After 4 weeks the mice were killed and examined for changes in gross histology in target organs.

[6] = system: EJ bladder carcinoma cells; test: Persistent effects after removal of the compound in EJ cells; assay type: cell-based, human
Method: EJ bladder carcinoma cells were treated with SP2007 (P10: 10 μM and P20: 20 μM), taxol (T10: 10 nM and T20: 20 nM) or DMSO vehicle control for either 20 hrs or 3 hrs. For the 20 hrs experiment, the percentages of remaining living cells ware measured on the end of the 20 hrs treatment time point. […] For the 3 hrs experiment, cells were washed 3 times with PBS after treatment with the and incubated for another 6 hrs in growing medium without SP2007, taxol or DMSO.

[7] = system: diploid fibroblasts, keratinocytes and breast epithelial cells; test: Cell death in non-transformed control cells; assay type: cell-based
[8] = system: CDIP promoter containing p53 binding site; test: CDIP promoter/p53 responsive site luciferase reporter screen; assay type: cell-based, human
From the text: We screened a small molecule library of biologically active compounds using a Luciferase reporter gene construct fused with CDIP (Cell Death Involved p53 target) promoter/p53 responsive site as a read-out assay. p53 transcriptional activators were identified from screening the diversity set of the biologically active library using U2OS human cancer cells expressing the p53-responsive reporter. Briefly, a reporter construct was created that included the CDIP promoter operatively linked to the luc2 luciferase reporter gene. We stably expressed a human p53 reporter, luciferase2/Puro+CDIP promoter, which carries the firefly luciferase gene under the control of p53-responsive elements of CDIP promoter, in U2OS cells. Stable cell lines were produced that expressed the reporter construct, and the cells were plated in 384 well plates at ˜10,000 cells per well. Test compounds were added to the plated cells at two replicates per compound, and the cells were incubated with the compounds for 24 hours. The data were analyzed using Spotfire. The initial screen identified several compounds that activated p53-responsive reporter expression during 48 hours.

[9] = system: EJ human bladder cancer cell xenografts; test: EJ human bladder cancer xenograft in nude mice; assay type: in vivo, mouse
Method: We tested piperlongumine in colon tumor, breast, melanoma or bladder tumor xenograft-bearing mice to evaluate the anti-tumor effect of piperlongumine. We examined EJ human bladder cancer cell xenografts (non-functional p53) to evaluate anti-tumor effects. A total of 2×10^6 EJ cells or SW480 cells were implanted subcutaneously on opposite site flanks in each of six nude/nude mice in each group. When tumor masses grew to ˜5-10 mm in diameter, piperlongumine was administered intraperitoneally (28 ug per each intraperitoneal administration, total 1.2 mg/kg) every 48 hours for 12 days (6 times total).

[10] = Precipitation on dilution of DMSO solution; assay type: physicochemical; conditions: diluted 1:10 in phosphate buffered saline or water
Method: (§2) To avoid toxicity, piperlongumine should be used at less than 2.5 mg/kg in mice. The skilled person will know how to formulate the compounds of the invention in accordance with the solubility by selection of appropriate carriers, solubilizers, etc.

human cancer cell lines [11] = test: SRB (Sulforhodamine B) staining assay in human cancer cell lines; assay type: cell-based
Method: The tumor growth inhibitory effect of piperlongumine was evaluated in a variety of human cancer cell lines. Cells were grown in ˜50-70% confluency and treated with piperlongumine and known anti-cancer agents at various concentrations (0.1-30 μM) and analyzed for cell death or viability by SRB (Sulforhodamine B) staining assay. The SRB assay is a well established assay that is used for the detection of cell death, viability or proliferation in drug screening.

[12] = system: patient-derived breast cancer tumor samples; test: Histoculture Drug Response Assay (HDRA), breast; assay type: cell-based, human
From the text: as §1

Toxicity limit in mice = assay type: in vivo, mouse
Method: as §2

For `COc1cc(/C=C/C(=O)N2CCC=CC2=O)cc(OC)c1OC` [piperlongumine, N-(3,4,5,-trimethoxycinnamoyl)-Δ^3-piperidine-2-one], which “levels of expression of survival proteins” value [1] is on record?
Its value is “significantly repressed; also recorded: inhibits the expression of survival proteins”.

And the “phosphorylated gamma-H2AX and p53” value [2]?
Its value is “does not result in the induction”.

And the “growth of patient-derived tumor samples” value [3]?
Its value is “inhibits growth”.

What about the “sub-G1 apoptotic population of cells” value (human cancer cell lines [4]; HCT116 cells) of the same compound?
The value was “increased”.

And the “potencies for tumor cell growth inhibition and cell death/apoptosis” value (human cancer cell lines [4]; various human cancer cells, regardless of p53 status)?
The value was 2.5 to 20 µM.

What about the “amount of acetylated p53” value (p53) of the same compound?
Its value is “increased the amount of acetylated p53 to a level similar to TSA treated cells”.

And the “total amount of p53” value (p53; TSA 10 mM)?
The value was “did result in an increased”.

And the mortality [5]?
Its mortality is “None of the mice died”.

What about the “gross histology in kidney, liver and lung” value ([5]; hematoxilin and eosin staining) of the same compound?
Its value is “no change in gross histology”.

And the “killing of cancer cells after removal of the compound” value ([6]; 3 hrs treatment, washed, another 6 hrs in medium without compound)?
The value was “still able to kill cancer cells”.

What about the “percentage of remaining living cells” value ([6]; 20 hrs treatment, SP2007 10 and 20 μM, taxol 10 and 20 nM) of the same compound?
The value was “No difference was observed”.

And the “cell death/apoptosis in normal cells” value [7]?
The value was “not in normal cells”.

What about the “luciferase activity of the CDIP promoter containing p53 binding site” value ([8]; 10 μM, U2OS cells) of the same compound?
Its value is “significantly increased”.

What about the “composite Z value in the screen” value ([8]; among natural compound candidates, U2OS reporter cells) of the same compound?
Its value is “highest composite Z value”.

What about the anti-tumor effect ([9]; 28 ug i.p. every 48 hours for 12 days (total 1.2 mg/kg), compared to DMSO) of the same compound?
The anti-tumor effect was “significant anti-tumor effects”.

What about the “blood vessel formation (angiogenesis) in the tumors” value ([9]; tumor mice) of the same compound?
The value was “strongly inhibited”.

What about the “expression of apoptosis genes (p21, PUMA, Caspase 3) in tumor-mice” value ([9]; tumor mice) of the same compound?
The value was “enhanced”.

What about the “concentration in DMSO that precipitated out when diluted 1:10” value [10] of the same compound?
Its value is “more than 0.25 mg/ml”.

And the “tumor cell growth inhibition compared to known anti-cancer drugs” value (human cancer cell lines [11]; 0.1-30 μM, variety of human cancer cell lines)?
Its value is “as well as or better than other well-known anti-cancer drugs”.

What about the cell growth (human cancer cell lines [11]; glioblastoma cell lines) of the same compound?
Its cell growth is “inhibits cell growth”.

And the cell growth (human cancer cell lines [11]; human melanoma and ovarian cancer cell lines)?
Its cell growth is “inhibits cell growth”.

What about the cell growth (human cancer cell lines [11]; human renal cancer cell lines) of the same compound?
Its cell growth is “inhibits cell growth”.

What about the “growth of patient-derived tumor samples” value [12] of the same compound?
The value was “inhibits growth”.

What about the “dose to avoid toxicity” value (Toxicity limit in mice) of the same compound?
Its value is “less than 2.5 mg/kg”.
